Numbered stars: 1 amine (or outer) side, 2 acyl side, 3 side chain; on linkers, the order of the positions; unused ones are H or OH. Bridge positions count the residues as written; N and C are the ends. Square brackets hold non-standard residues; d marks the D form. Peptide text beside a SMILES is read from it. I, II: the chains in the order shown. Phe(4-COOH) = N[C@@H](Cc1ccc(C(=O)O)cc1)C(=O)O; 1Nal = N[C@@H](Cc1cccc2ccccc12)C(=O)O; 2Nal = N[C@@H](Cc1ccc2ccccc2c1)C(=O)O; Diglycolyl = O=C(COCC(=O)[*:2])[*:1]; NMeR = CN[C@@H](CCCNC(=N)N)C(=O)O; Pen = CC(C)(S)[C@H](N)C(=O)O; Dab = NCC[C@H](N)C(=O)O
The molecules below were run against α4β7 (Homo sapiens, UniProt P13612+P26010) (assay: α4β7-MAdCAM Cell Adhesion Assay (RPMI 8866 human cells)). Settings: Table 3-B, Potency (α4β7); range classes; read-out: α4β7 cell (Hu) IC50.
Chain of α4β7 (P13612 34-1032): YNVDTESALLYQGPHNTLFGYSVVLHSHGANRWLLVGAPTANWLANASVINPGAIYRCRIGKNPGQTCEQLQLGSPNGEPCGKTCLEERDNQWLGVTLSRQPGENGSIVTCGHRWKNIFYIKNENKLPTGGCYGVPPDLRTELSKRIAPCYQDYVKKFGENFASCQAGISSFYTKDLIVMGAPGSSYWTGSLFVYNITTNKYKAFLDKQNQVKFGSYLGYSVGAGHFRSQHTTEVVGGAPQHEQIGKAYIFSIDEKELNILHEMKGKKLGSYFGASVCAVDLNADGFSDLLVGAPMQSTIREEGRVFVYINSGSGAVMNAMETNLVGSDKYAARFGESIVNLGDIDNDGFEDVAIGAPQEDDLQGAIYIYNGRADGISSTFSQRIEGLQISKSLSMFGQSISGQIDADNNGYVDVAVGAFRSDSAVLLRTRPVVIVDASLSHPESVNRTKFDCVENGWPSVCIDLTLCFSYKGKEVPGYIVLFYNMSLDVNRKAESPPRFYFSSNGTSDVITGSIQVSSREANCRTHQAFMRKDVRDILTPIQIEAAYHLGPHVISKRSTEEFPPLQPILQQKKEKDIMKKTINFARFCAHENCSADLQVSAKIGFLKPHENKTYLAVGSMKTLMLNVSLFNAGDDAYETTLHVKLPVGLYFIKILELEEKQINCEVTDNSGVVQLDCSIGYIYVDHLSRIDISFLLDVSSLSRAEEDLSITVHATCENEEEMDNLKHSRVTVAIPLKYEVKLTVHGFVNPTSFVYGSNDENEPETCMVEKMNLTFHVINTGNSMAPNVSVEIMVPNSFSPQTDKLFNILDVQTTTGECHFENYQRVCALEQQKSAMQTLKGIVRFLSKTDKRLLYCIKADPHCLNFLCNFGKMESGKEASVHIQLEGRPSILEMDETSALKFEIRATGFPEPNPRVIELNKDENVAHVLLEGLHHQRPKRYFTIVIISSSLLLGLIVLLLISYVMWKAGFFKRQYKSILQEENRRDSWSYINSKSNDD
Chain of α4β7 (P26010 20-798): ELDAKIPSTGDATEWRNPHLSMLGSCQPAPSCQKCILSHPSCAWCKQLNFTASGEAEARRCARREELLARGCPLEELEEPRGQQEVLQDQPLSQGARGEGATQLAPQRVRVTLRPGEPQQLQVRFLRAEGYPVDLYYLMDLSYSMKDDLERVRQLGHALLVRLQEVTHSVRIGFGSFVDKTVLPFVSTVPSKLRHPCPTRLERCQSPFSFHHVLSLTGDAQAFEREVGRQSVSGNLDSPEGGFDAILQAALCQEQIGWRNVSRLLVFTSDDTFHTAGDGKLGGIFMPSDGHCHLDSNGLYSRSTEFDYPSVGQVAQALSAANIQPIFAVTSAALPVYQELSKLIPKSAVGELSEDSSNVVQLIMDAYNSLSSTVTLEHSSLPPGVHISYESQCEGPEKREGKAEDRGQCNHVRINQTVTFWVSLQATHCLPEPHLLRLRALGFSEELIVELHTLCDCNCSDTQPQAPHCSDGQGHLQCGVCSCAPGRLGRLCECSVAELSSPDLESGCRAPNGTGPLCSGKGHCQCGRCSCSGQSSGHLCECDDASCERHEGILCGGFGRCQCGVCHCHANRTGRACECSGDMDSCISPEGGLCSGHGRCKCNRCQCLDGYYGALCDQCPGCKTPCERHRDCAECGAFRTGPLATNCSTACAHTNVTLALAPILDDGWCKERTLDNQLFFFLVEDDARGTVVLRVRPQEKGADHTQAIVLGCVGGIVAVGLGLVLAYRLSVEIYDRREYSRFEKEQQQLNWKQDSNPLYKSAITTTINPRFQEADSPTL
Type: cell-based
Parameters: host or cells: RPMI 8866 human B lymphoblastoid cells
Method: RPMI 8866 human cells (Sigma #95041316) were cultured in RPMI 1640 HEPES medium (Invitrogen #22400-089) supplemented with 10% serum (Fetal Bovine Serum, Invitrogen #16140-071), 1 mM sodium pyruvate (Invitrogen #11360-070), 2 mM L-glutamine (Invitrogen #25030-081) and Penicillin-Streptomycin (Invitrogen #15140-122) at 100 units of penicillin and 100 μg of streptomycin per ml. The cells were washed two times in DMEM medium (ATCC #30-2002) supplemented with 0.1% BSA, 10 mM HEPES pH 7 and 1 mM MnCl2. The cells were re-suspended in supplemented DMEM medium at a density of 4×10^6 cells/ml.
A Nunc MaxiSorp plate was coated with rh MAdCAM-1/Fc Chimera (R&D #6065-MC) at 200 ng per well in 50 ul per well in 1×PBS and incubated at 4° C. overnight. The solution was then removed by shaking, blocked with 250 ul per well PBS containing 1% BSA, and incubated at 37° C. for 1 hr. The solution was removed by shaking. Peptides were diluted by serial dilution in a final volume of 50 ul per well (2× concentration). To each well, 50 ul of cells (200,000 cells) were added and the plate was incubated at 37° C., 5% CO2 for 30-45 min to allow cell adhesion. The wells were washed manually three times (100 ul per wash) with supplemented DMEM. After the final wash, 100 ul/well of supplemented DMEM and 10 ul/well of MTT reagent (ATTC cat#30-1010K) were added. The plate was incubated at 37° C., 5% CO2 for 2-3 hrs until a purple precipitate was visible. 100 ul of Detergent Reagent (ATTC cat#30-1010K) was added to each well. The plate was covered from the light, wrapped in Parafilm to prevent evaporation, and left overnight at room temperature in the dark. The plate was shaken for 5 min and the absorbance at 570 nm was measured. To calculate the dose response, the absorbance value of control wells not containing cells was subtracted from each test well.

SMILES | IC50 [nM]
CC(=O)N[C@@H]1C(=O)N(C)[C@@H](CCCNC(=N)N)C(=O)N[C@@H](CO)C(=O)N[C@@H](CC(=O)O)C(=O)N[C@@H]([C@@H](C)O)C(=O)N[C@@H](CC(C)C)C(=O)N[C@H](C(=O)N[C@@H](Cc2c[nH]c3ccccc23)C(=O)N[C@H](Cc2c[nH]c3ccccc23)C(=O)N[C@H](CCCCNC(=O)COCC(=O)NCCCC[C@@H](NC(=O)[C@@H](Cc2c[nH]c3ccccc23)NC(=O)[C@H](Cc2c[nH]c3ccccc23)NC(=O)[C@H]2NC(=O)[C@H](CC(C)C)NC(=O)[C@H]([C@@H](C)O)NC(=O)[C@H](CC(=O)O)NC(=O)[C@H](CO)NC(=O)[C@H](CCCNC(=N)N)N(C)C(=O)[C@@H](NC(C)=O)C(C)(C)SSC2(C)C)C(N)=O)C(N)=O)C(C)(C)SSC1(C)C [compound 110] (I: Ac-[Pen][NMeR]SDTL[Pen]W[dW][dK]-NH2 / II: Ac-[Pen][NMeR]SDTL[Pen]W[dW][dK]-NH2; disulfide I:1-I:7, II:1-II:7; linker I:10-II:10 via Diglycolyl) | 10 to 25
CC(=O)N[C@@H]1C(=O)N(C)[C@@H](CCCNC(=N)N)C(=O)N[C@@H](CO)C(=O)N[C@@H](CC(=O)O)C(=O)N[C@@H]([C@@H](C)O)C(=O)N[C@@H](CC(C)C)C(=O)N[C@H](C(=O)N[C@@H](Cc2cccc3ccccc23)C(=O)N[C@@H](C(=O)N[C@H](CCCCNC(=O)COCC(=O)NCCCC[C@@H](NC(=O)[C@H](NC(=O)[C@H](Cc2cccc3ccccc23)NC(=O)[C@H]2NC(=O)[C@H](CC(C)C)NC(=O)[C@H]([C@@H](C)O)NC(=O)[C@H](CC(=O)O)NC(=O)[C@H](CO)NC(=O)[C@H](CCCNC(=N)N)N(C)C(=O)[C@@H](NC(C)=O)C(C)(C)SSC2(C)C)[C@H](C)O)C(N)=O)C(N)=O)[C@H](C)O)C(C)(C)SSC1(C)C [compound 116] (I: Ac-[Pen][NMeR]SDTL[Pen][1Nal][dT][dK]-NH2 / II: Ac-[Pen][NMeR]SDTL[Pen][1Nal][dT][dK]-NH2; disulfide I:1-I:7, II:1-II:7; linker I:10-II:10 via Diglycolyl) | 50 to 100
CC(=O)N[C@@H]1C(=O)N(C)[C@@H](CCCNC(=N)N)C(=O)N[C@@H](CO)C(=O)N[C@@H](CC(=O)O)C(=O)N[C@@H](CC(=O)O)C(=O)N[C@@H](CC(C)C)C(=O)N[C@H](C(=O)N[C@@H](Cc2ccc(C(C)(C)C)cc2)C(=O)N[C@@H](CCC(=O)O)CC(=O)N[C@H](CCCCNC(=O)CN(CC(=O)NCCCC[C@@H](NC(=O)C[C@H](CCC(=O)O)NC(=O)[C@H](Cc2ccc(C(C)(C)C)cc2)NC(=O)[C@H]2NC(=O)[C@H](CC(C)C)NC(=O)[C@H](CC(=O)O)NC(=O)[C@H](CC(=O)O)NC(=O)[C@H](CO)NC(=O)[C@H](CCCNC(=N)N)N(C)C(=O)[C@@H](NC(C)=O)C(C)(C)SSC2(C)C)C(N)=O)C(=O)CCN)C(N)=O)C(C)(C)SSC1(C)C [compound 191] | 10000 to 100000
CC(=O)N[C@@H]1C(=O)N(C)[C@@H](CCCNC(=N)N)C(=O)N[C@@H](CO)C(=O)N[C@@H](CC(=O)O)C(=O)N[C@@H]([C@@H](C)O)C(=O)N[C@@H](CC(C)C)C(=O)N[C@H](C(=O)N[C@@H](Cc2c[nH]c3ccccc23)C(=O)N[C@@H](Cc2ccccc2)C(=O)N[C@H](CCCCNC(=O)COCC(=O)NCCCC[C@@H](NC(=O)[C@H](Cc2ccccc2)NC(=O)[C@H](Cc2c[nH]c3ccccc23)NC(=O)[C@H]2NC(=O)[C@H](CC(C)C)NC(=O)[C@H]([C@@H](C)O)NC(=O)[C@H](CC(=O)O)NC(=O)[C@H](CO)NC(=O)[C@H](CCCNC(=N)N)N(C)C(=O)[C@@H](NC(C)=O)C(C)(C)SSC2(C)C)C(N)=O)C(N)=O)C(C)(C)SSC1(C)C [compound 85] (I: Ac-[Pen][NMeR]SDTL[Pen]WF[dK]-NH2 / II: Ac-[Pen][NMeR]SDTL[Pen]WF[dK]-NH2; disulfide I:1-I:7, II:1-II:7; linker I:10-II:10 via Diglycolyl) | < 10
CC(=O)N[C@@H]1C(=O)N(C)[C@@H](CCCNC(=N)N)C(=O)N[C@@H](CO)C(=O)N[C@@H](CC(=O)O)C(=O)N[C@@H]([C@@H](C)O)C(=O)N[C@@H](CC(C)C)C(=O)N[C@H](C(=O)N[C@@H](Cc2ccc3ccccc3c2)C(=O)N[C@H](CCCNC(=N)N)C(=O)N[C@H](CCCCNC(=O)COCC(=O)NCCCC[C@@H](NC(=O)[C@@H](CCCNC(=N)N)NC(=O)[C@H](Cc2ccc3ccccc3c2)NC(=O)[C@H]2NC(=O)[C@H](CC(C)C)NC(=O)[C@H]([C@@H](C)O)NC(=O)[C@H](CC(=O)O)NC(=O)[C@H](CO)NC(=O)[C@H](CCCNC(=N)N)N(C)C(=O)[C@@H](NC(C)=O)C(C)(C)SSC2(C)C)C(N)=O)C(N)=O)C(C)(C)SSC1(C)C [compound 120] (I: Ac-[Pen][NMeR]SDTL[Pen][2Nal][dR][dK]-NH2 / II: Ac-[Pen][NMeR]SDTL[Pen][2Nal][dR][dK]-NH2; disulfide I:1-I:7, II:1-II:7; linker I:10-II:10 via Diglycolyl) | 1000 to 10000
CC(=O)N[C@@H]1C(=O)N(C)[C@@H](CCCNC(=N)N)C(=O)N[C@@H](CO)C(=O)N[C@@H](CC(=O)O)C(=O)N[C@@H]([C@@H](C)O)C(=O)N[C@@H](CC(C)C)C(=O)N[C@H](C(=O)N[C@@H](Cc2c[nH]c3ccccc23)C(=O)N[C@@H](Cc2ccc(C(=O)O)cc2)C(=O)N[C@H](CCCCNC(=O)COCC(=O)NCCCC[C@@H](NC(=O)[C@H](Cc2ccc(C(=O)O)cc2)NC(=O)[C@H](Cc2c[nH]c3ccccc23)NC(=O)[C@H]2NC(=O)[C@H](CC(C)C)NC(=O)[C@H]([C@@H](C)O)NC(=O)[C@H](CC(=O)O)NC(=O)[C@H](CO)NC(=O)[C@H](CCCNC(=N)N)N(C)C(=O)[C@@H](NC(C)=O)C(C)(C)SSC2(C)C)C(N)=O)C(N)=O)C(C)(C)SSC1(C)C [compound 105] (I: Ac-[Pen][NMeR]SDTL[Pen]W[Phe(4-COOH)][dK]-NH2 / II: Ac-[Pen][NMeR]SDTL[Pen]W[Phe(4-COOH)][dK]-NH2; disulfide I:1-I:7, II:1-II:7; linker I:10-II:10 via Diglycolyl) | 50 to 100
CC(=O)N[C@@H]1C(=O)N(C)[C@@H](CCCNC(=N)N)C(=O)N[C@@H](CO)C(=O)N[C@@H](CC(=O)O)C(=O)N[C@@H]([C@@H](C)O)C(=O)N[C@@H](CC(C)C)C(=O)N[C@H](C(=O)N[C@@H](Cc2c[nH]c3ccccc23)C(=O)N[C@@H](CCC(=O)O)C(=O)N[C@@H](CCN)C(N)=O)C(C)(C)SSC1(C)C [compound 61] (Ac-[Pen][NMeR]SDTL[Pen]WE[Dab]-NH2; disulfide 1-7) | 1000 to 10000
CC(=O)N[C@@H]1C(=O)N(C)[C@@H](CCCNC(=N)N)C(=O)N[C@@H](CO)C(=O)N[C@@H](CC(=O)O)C(=O)N[C@@H]([C@@H](C)O)C(=O)N[C@@H](CC(C)C)C(=O)N[C@H](C(=O)N[C@@H](Cc2cccc3ccccc23)C(=O)N[C@H](Cc2ccccc2)C(=O)N[C@H](CCCCNC(=O)COCC(=O)NCCCC[C@@H](NC(=O)[C@@H](Cc2ccccc2)NC(=O)[C@H](Cc2cccc3ccccc23)NC(=O)[C@H]2NC(=O)[C@H](CC(C)C)NC(=O)[C@H]([C@@H](C)O)NC(=O)[C@H](CC(=O)O)NC(=O)[C@H](CO)NC(=O)[C@H](CCCNC(=N)N)N(C)C(=O)[C@@H](NC(C)=O)C(C)(C)SSC2(C)C)C(N)=O)C(N)=O)C(C)(C)SSC1(C)C [compound 111] (I: Ac-[Pen][NMeR]SDTL[Pen][1Nal][dF][dK]-NH2 / II: Ac-[Pen][NMeR]SDTL[Pen][1Nal][dF][dK]-NH2; disulfide I:1-I:7, II:1-II:7; linker I:10-II:10 via Diglycolyl) | 100 to 500
CC(=O)N[C@@H]1C(=O)N(C)[C@@H](CCCNC(=N)N)C(=O)N[C@@H](CO)C(=O)N[C@@H](CC(=O)O)C(=O)N[C@@H](Cc2ccccc2)C(=O)N[C@@H](CC(C)C)C(=O)N[C@H](C(=O)N[C@@H](Cc2ccc3ccccc3c2)C(=O)N[C@H](CCC(=O)O)C(N)=O)C(C)(C)SSC1(C)C [compound 157] (Ac-[Pen][NMeR]SDFL[Pen][2Nal][dE]-NH2; disulfide 1-7) | 1000 to 10000
CC(=O)N[C@@H]1C(=O)N(C)[C@@H](CCCNC(=N)N)C(=O)N[C@@H](CO)C(=O)N[C@@H](CC(=O)O)C(=O)N[C@@H]([C@@H](C)O)C(=O)N[C@@H](CC(C)C)C(=O)N[C@H](C(=O)N[C@@H](Cc2ccc3ccccc3c2)C(=O)N[C@@H](C(=O)N[C@H](CCCCNC(=O)COCC(=O)NCCCC[C@@H](NC(=O)[C@H](NC(=O)[C@H](Cc2ccc3ccccc3c2)NC(=O)[C@H]2NC(=O)[C@H](CC(C)C)NC(=O)[C@H]([C@@H](C)O)NC(=O)[C@H](CC(=O)O)NC(=O)[C@H](CO)NC(=O)[C@H](CCCNC(=N)N)N(C)C(=O)[C@@H](NC(C)=O)C(C)(C)SSC2(C)C)[C@H](C)O)C(N)=O)C(N)=O)[C@H](C)O)C(C)(C)SSC1(C)C [compound 140] (I: Ac-[Pen][NMeR]SDTL[Pen][2Nal][dT][dK]-NH2 / II: Ac-[Pen][NMeR]SDTL[Pen][2Nal][dT][dK]-NH2; disulfide I:1-I:7, II:1-II:7; linker I:10-II:10 via Diglycolyl) | 10 to 25
